Measured values as given in patent US20100197727A1, “Quinoline Derivatives as Antibacterial Agents” (priority 2005, published 2010).

How the values were obtained:
Assay in all cases: Microtitre plate assay, IC90 determination
Format in all cases: cell-based
Conditions in all cases: 90% inhibitory concentration for bacterial growth
[1] = system: Streptococcus mutans (ATCC33402)
Method: (§1) The bacteria used in this study were grown overnight in flasks containing 100 ml Mueller-Hinton Broth (Becton Dickinson—cat. no. 275730) in sterile de-ionized water, with shaking, at 37° C. Stocks (0.5 ml/tube) were stored at −70° C. until use. Bacteria titrations were performed in microtiter plates and colony forming units (CFUs) were determined In general, an inoculum level of approximately 100 CFUs was used for susceptibility testing.
(§2) Flat-bottom, sterile 96-well plastic microtiter plates were filled with 180 μl of sterile deionized water, supplemented with 0.25% BSA. Subsequently, stock solutions (7.8× final test concentration) of compounds were added in 45 μl volumes in column 2. Serial five-fold dilutions (45 μl in 180 μl ) were made directly in the microtiter plates from column 2 to reach column 11. Untreated control samples with (column 1) and without (column 12) inoculum were included in each microtiter plate. Depending on the bacteria type, approximately 10 to 60 CFU per well of bacteria inoculum (100 TCID50), in a volume of 100 μl in 2.8× Mueller-Hinton broth medium, was added to the rows A to H, except column 12. The same volume of broth medium without inoculum was added to column 12 in row A to H. The cultures were incubated at 37° C. for 24 hours under a normal atmosphere (incubator with open air valve and continuous ventilation). At the end of incubation, one day after inoculation, the bacterial growth was quantitated fluorometrically. Therefore resazurin (0.6 mg/ml) was added in a volume of 20 μl to all wells 3 hours after inoculation, and the plates were re-incubated overnight. A change in colour from blue to pink indicated the growth of bacteria. The fluorescence was read in a computer-controlled fluorometer (Cytofluor Biosearch) at an excitation wavelength of 530 nm and an emission wavelength of 590 nm. The % growth inhibition achieved by the compounds was calculated according to standard methods. The IC90 (expressed in μg/ml) was defined as the 90% inhibitory concentration for bacterial growth.

[2] = system: Staphylococcus aureus (ATCC29213)
Method: as §1, §2

[3] = system: Streptococcus pneumoniae (ATCC6305)
Method: as §1, §2

[4] = system: Staphylococcus aureus (ATCC25923)
Method: as §1, §2

[5] = system: Enterococcus faecalis (ATCC29212)
Method: as §1, §2

[6] = system: Streptococcus pyogens (ATCC8668)
Method: as §1, §2

[7] = system: Staphylococcus aureus (ATCC43300)
Method: as §1, §2

[8] = system: Enterococcus faecalis (ATCC14506)
Method: as §1, §2

[9] = system: Bacillus subtilis (ATCC43639)
Method: as §1, §2

[10] = system: Listeria monocytogenes (ATCC49594)
Method: as §1, §2

[11] = system: methicilline resistant Staphylococcus aureus (MRSA) (a clinical isolate from the University of Antwerp)
Method: as §1, §2

[12] = system: Pseudomonas aeruginosa (ATCC27853)
Method: as §1, §2

[13] = system: Escherichia coli (ATCC25922)
Method: as §1, §2

[14] = system: Escherichia coli (ATCC35218)
Method: as §1, §2

Compound | IC90 STA 29213 [2] [µg/mL] | IC90 SPN 6305 [3] [µg/mL] | IC90 EFA 29212 [5] [µg/mL] | IC90 SPY 8668 [6] [µg/mL] | IC90 PAE 27853 [12] [µg/mL] | further results
COc1nc2ccc(Br)cc2cc1C(c1ccccc1)C(O)(CC[N+](C)(C)C)c1ccccc1.[I-] (single isomer, unassigned) [Compound 10] | 14.5 | 16.3 | 5.8 | 1.3 |  | IC90 SMU 33402 [1]: 10.3 µg/mL; IC90 STA 25923 [4]: 11.5 µg/mL; IC90 STA 43300 [7]: 5.8 µg/mL; IC90 EFA 14506 [8]: 12.9 µg/mL; IC90 BSU 43639 [9]: 10.3 µg/mL; IC90 LMO 49594 [10]: 1.2 µg/mL; IC90 STA RMETH [11]: 8.2 µg/mL
COc1nc2ccc(Br)cc2cc1C(c1ccccc1)C(O)(CC[N+](C)(C)C)c1ccccc1.[I-] (single isomer, unassigned) [Compound 57] | 12.9 | 16.3 | 12.9 | 12.9 |  | IC90 SMU 33402 [1]: 12.9 µg/mL; IC90 STA 25923 [4]: 12.9 µg/mL; IC90 STA 43300 [7]: 12.9 µg/mL; IC90 EFA 14506 [8]: 12.9 µg/mL; IC90 BSU 43639 [9]: 2.6 µg/mL; IC90 LMO 49594 [10]: 2.6 µg/mL; IC90 STA RMETH [11]: 12.9 µg/mL
COc1nc2ccc(Br)cc2cc1C(c1ccccc1)C(O)(CC[N+](C)(C)C)c1cccc2ccccc12.[I-] (single isomer, unassigned) [Compound 121] | 0.4 | 3.5 | 2.8 | 3.5 | 13.9 | IC90 SMU 33402 [1]: 2.8 µg/mL; IC90 STA 25923 [4]: 2.2 µg/mL; IC90 ECO 25922 [13]: 12.4 µg/mL; IC90 STA 43300 [7]: 3.5 µg/mL; IC90 EFA 14506 [8]: 2.8 µg/mL; IC90 BSU 43639 [9]: 2.8 µg/mL; IC90 LMO 49594 [10]: 0.5 µg/mL; IC90 STA RMETH [11]: 2.2 µg/mL
CCCC[N+](C)(C)CCC(O)(c1cccc2ccccc12)C(c1ccccc1)c1cc2cc(Br)ccc2nc1OC.[I-] (single isomer, unassigned) [Compound C] | 0.4 |  |  |  |  | 
COc1nc2ccc(Br)cc2cc1C(c1ccccc1)C(O)(CCc1ccccc1)CC[N+](C)(C)C.[I-] (single isomer, unassigned) [Compound F] | 2.1 |  |  |  |  | 
COc1nc2ccc(Br)cc2cc1C(c1ccccc1)C(O)(CCC[N+](C)(C)C)c1cccc2ccccc12.[I-] (single isomer, unassigned) [Compound G] | 0.4 |  |  |  |  | 
COc1nc2ccc(Br)cc2cc1C(c1ccccc1)C(O)(CCCC[N+](C)(C)C)c1ccc2ccccc2c1.[I-] (single isomer, unassigned) [Compound H] | 0.5 |  |  |  |  | 
COc1nc2ccc(Br)cc2cc1C(c1ccccc1)C(O)(CCCC[N+](C)(C)C)c1ccccc1.[I-] (single isomer, unassigned) [Compound K] | 2.1 |  |  |  |  | 
CSc1nc2ccc(Br)cc2cc1C(c1ccccc1)C(O)(CCCC[N+](C)(C)C)c1ccccc1.[I-] (single isomer, unassigned) [Compound L] | 2.2 | 2.2 | 2.2 | 0.4 | 2.2 | IC90 SMU 33402 [1]: 0.4 µg/mL; IC90 ECO 35218 [14]: 11 µg/mL; IC90 BSU 43639 [9]: 2.2 µg/mL; IC90 LMO 49594 [10]: 2.2 µg/mL
COc1nc2ccc(Br)cc2cc1C(c1ccccc1)C(O)(CC[N+](C)(C)C)c1ccsc1.[I-] (single isomer, unassigned) [Compound M] | 1.7 | 8.34 |  | 8.34 |  | 
COc1nc2ccc(Br)cc2cc1C(c1ccc(Cl)cc1)C(O)(CC[N+](C)(C)C)c1ccccc1.[I-] (single isomer, unassigned) [Compound N] | 1.8 | 1.75 | 1.75 | 1.75 | 9.87 | IC90 ECO 35218 [14]: 17.55 µg/mL
COc1nc2ccc(Br)cc2cc1C(c1ccccc1)C(O)(CC[N+](C)(C)C)c1cccc(F)c1.[I-] (single isomer, unassigned) [Compound O] | 1.9 | 1.7 | 8.53 | 1.7 |  | 
COc1nc2ccc(Br)cc2cc1C(c1ccccc1)C(O)(CC[N+](C)(C)C)c1ccc2ccccc2c1.[I-] (single isomer, unassigned) [Compound Q] | 1.8 | 1.8 | 1.8 | 1.8 | 4.53 | 
COc1nc2ccc(Br)cc2cc1C(c1ccccc1)C(O)(CCC[N+](C)(C)C)c1ccc2ccccc2c1.[I-] (single isomer, unassigned) [Compound S] | 0.4 | 0.47 | 1.85 | 1.85 | 1.85 | 
CSc1nc2ccc(Br)cc2cc1C(c1ccccc1)C(O)(CC[N+](C)(C)C)c1ccccc1.[I-] (single isomer, unassigned) [Compound T] | 1.7 | 1.7 | 3.8 | 1.7 | 8.5 | 
COc1nc2ccc(Br)cc2cc1C(c1ccccc1)C(O)(CCCC[N+]1(C)CCCCC1)c1ccccc1.[I-] (single isomer, unassigned) [Compound U] | 1.9 | 2.09 | 1.86 | 1.86 | 9.33 | 
COc1nc2ccc(Br)cc2cc1C(c1ccccc1)C(O)(CCc1ccccc1)CC[N+](C)(C)C.[I-] (single isomer, unassigned) [E] | 2.1 |  |  |  |  | 
COc1nc2ccc(Br)cc2cc1C(c1ccccc1)C(O)(CCCC[N+](C)(C)C)c1ccc2ccccc2c1.[I-] (single isomer, unassigned) [I] | 2.9 |  |  |  |  | 
COc1nc2ccc(Br)cc2cc1C(c1ccccc1)C(O)(CCCC[N+](C)(C)C)c1ccccc1.[I-] (single isomer, unassigned) [J] | 2.1 |  |  |  |  | 
COc1nc2ccc(Br)cc2cc1C(c1ccccc1)C(O)(CCC[N+](C)(C)C)c1ccc2ccccc2c1.[I-] (single isomer, unassigned) [R] | 0.4 | 0.46 | 1.17 | 0.74 | 2.07 | IC90 ECO 35218 [14]: 9.27 µg/mL
